Experimental data taken from the supplement of paper PMC5908809.

Assays:
[1] = tested on: normal NK cells expanded with K562-aAPC; assay: percent inhibition of viability; higher = more inhibition; settings: 72 h, IL-2 2.5 ng/mL
Procedure: (§1)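 Drug sensitivity and resistance testing on K562-aAPC-expanded normal NK cells: 5 concentrations (10-fold steps over a 10,000-fold range), 72 h at 37 °C, viability by CellTiter-Glo normalised to DMSO and benzethonium chloride controls; DSS from the fitted curve.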

DERL-7 (IL-2 2.5 ng/mL) [2] = assay: as above; settings: 72 h
IMC-1 (IL-2 20 ng/mL) [3] = assay: as above; settings: 72 h
KAI3 (IL-2 2.5 ng/mL) [4] = assay: as above; settings: 72 h
KHYG-1 (IL-2 2.5 ng/mL) [5] = assay: as above; settings: 72 h
NK-92 (IL-2 2.5 ng/mL) [6] = assay: as above; settings: 72 h
NK-YS (IL-2 2.5 ng/mL) [7] = assay: as above; settings: 72 h
NKL (IL-2 2.5 ng/mL) [8] = assay: as above; settings: 72 h
SNK-6 (IL-2 2.5 ng/mL) [9] = assay: as above; settings: 72 h
YT (IL-2 2.5 ng/mL) [10] = assay: as above; settings: 72 h
[11] = tested on: normal primary NK cells, pool 1 (3 donors) (IL-2 2.5 ng/mL); assay: as above; settings: 72 h
[12] = tested on: normal primary NK cells, pool 1 (3 donors), resting (IL-2 0 ng/mL); assay: as above; settings: 72 h
[13] = tested on: normal primary NK cells, pool 2 (3 donors) (IL-2 2.5 ng/mL); assay: as above; settings: 72 h
[14] = tested on: normal primary NK cells, pool 3 (3 donors) (IL-2 2.5 ng/mL); assay: as above; settings: 72 h
[15] = tested on: normal NK cells expanded with K562-aAPC; assay: drug sensitivity score (DSS) (DSS units); higher = more sensitive; extreme values may be limits of the assay; settings: 72 h; IL-2 2.5 ng/mL
Procedure: as §1

DERL-7 (IL-2 2.5 ng/mL) [16] = assay: as above; settings: 72 h
IMC-1 (IL-2 20 ng/mL) [17] = assay: as above; settings: 72 h
KAI3 (IL-2 2.5 ng/mL) [18] = assay: as above; settings: 72 h
KHYG-1 (IL-2 2.5 ng/mL) [19] = assay: as above; settings: 72 h
NK-92 (IL-2 2.5 ng/mL) [20] = assay: as above; settings: 72 h
NK-YS (IL-2 2.5 ng/mL) [21] = assay: as above; settings: 72 h
NKL (IL-2 2.5 ng/mL) [22] = assay: as above; settings: 72 h
SNK-6 (IL-2 2.5 ng/mL) [23] = assay: as above; settings: 72 h
YT (IL-2 2.5 ng/mL) [24] = assay: as above; settings: 72 h
[25] = tested on: normal primary NK cells, pool 1 (3 donors) (IL-2 2.5 ng/mL); assay: as above; settings: 72 h
[26] = tested on: normal primary NK cells, pool 1 (3 donors), resting (IL-2 0 ng/mL); assay: as above; settings: 72 h
[27] = tested on: normal primary NK cells, pool 2 (3 donors) (IL-2 2.5 ng/mL); assay: as above; settings: 72 h
[28] = tested on: normal primary NK cells, pool 3 (3 donors) (IL-2 2.5 ng/mL); assay: as above; settings: 72 h

Nc1ncn([C@H]2C[C@H](O)[C@@H](CO)O2)c(=O)n1 [Decitabine] (max concentration tested 10000 nM)
percent inhibition of viability [%]
Settings	1 nM	10 nM	100 nM	1000 nM	10000 nM
DERL-7 (IL-2 2.5 ng/mL) [2]	0.66	-1.23	21.1	60.8	92.3
IMC-1 (IL-2 20 ng/mL) [3]	6.19	9.72	18.9	18.9	49.6
KAI3 (IL-2 2.5 ng/mL) [4]	10.1	26.4	51.8	58.8	73
KHYG-1 (IL-2 2.5 ng/mL) [5]	4.42	1.27	13.6	51.4	89.8
NK-92 (IL-2 2.5 ng/mL) [6]	14.1	7.13	28.5	42.4	81.5
NK-YS (IL-2 2.5 ng/mL) [7]	2.7	4.69	16.5	38	64.8
NKL (IL-2 2.5 ng/mL) [8]	0.73	9.17	7.62	27.4	15
SNK-6 (IL-2 2.5 ng/mL) [9]	3.81	14.8	64.3	70.1	78.8
YT (IL-2 2.5 ng/mL) [10]	9.12	6.63	10.1	24.2	47.4
[1]	3.63	6.61	11.9	21.8	56.1
[11]	8.63	2.5	-2.22	-0.78	30.4
[12]	3.59	-12.2	2.07	-6.83	43.9
[13]	-3.35	-1.69	-11.7	3	32.2
[14]	-2.52	-0.43	2.61	5.08	47.6

Settings	drug sensitivity score
DERL-7 (IL-2 2.5 ng/mL) [16]	14.1
IMC-1 (IL-2 20 ng/mL) [17]	6.54
KAI3 (IL-2 2.5 ng/mL) [18]	21
KHYG-1 (IL-2 2.5 ng/mL) [19]	11.7
NK-92 (IL-2 2.5 ng/mL) [20]	12.6
NK-YS (IL-2 2.5 ng/mL) [21]	9.23
NKL (IL-2 2.5 ng/mL) [22]	3.12
SNK-6 (IL-2 2.5 ng/mL) [23]	23.5
YT (IL-2 2.5 ng/mL) [24]	5.68
[15]	5.69
[25]	1.27
[26]	1.82
[27]	1.92
[28]	3.32

CC(=O)O[C@@]12CO[C@@H]1C[C@H](O)[C@@]1(C)C(=O)[C@H](O)C3=C(C)[C@@H](OC(=O)[C@H](O)[C@@H](NC(=O)OC(C)(C)C)c4ccccc4)C[C@@](O)([C@@H](OC(=O)c4ccccc4)[C@H]21)C3(C)C [Docetaxel] (max concentration tested 1000 nM)
percent inhibition of viability [%]
Settings	0.1 nM	1 nM	10 nM	100 nM	1000 nM
DERL-7 (IL-2 2.5 ng/mL) [2]	-4.53	0.19	99.5	100	100
IMC-1 (IL-2 20 ng/mL) [3]	-1.65	2.39	97.9	101	101
KAI3 (IL-2 2.5 ng/mL) [4]	-10.5	19.4	46.7	57.1	51.6
KHYG-1 (IL-2 2.5 ng/mL) [5]	-5.67	3.57	90.9	108	109
NK-92 (IL-2 2.5 ng/mL) [6]	-6.6	2.65	46	98.9	104
NK-YS (IL-2 2.5 ng/mL) [7]	-7.69	14.3	74.8	77.7	73.1
NKL (IL-2 2.5 ng/mL) [8]	-13.8	29	88.5	97.8	96.7
SNK-6 (IL-2 2.5 ng/mL) [9]	15	38.3	77.9	76.7	70.6
YT (IL-2 2.5 ng/mL) [10]	-3.12	22.3	90.7	105	105
[1]	1.57	-0.15	44.7	62.4	60.9
[11]	-5.72	-1.18	7.27	4.99	10.2
[12]	-16.6	-21.6	-3.21	-14.6	1.53
[13]	-10.9	-7.43	13.8	3.59	13.1
[14]	-13.5	-17	14	7.86	24.8

Settings	drug sensitivity score
DERL-7 (IL-2 2.5 ng/mL) [16]	30.4
IMC-1 (IL-2 20 ng/mL) [17]	30.5
KAI3 (IL-2 2.5 ng/mL) [18]	18.3
KHYG-1 (IL-2 2.5 ng/mL) [19]	29.3
NK-92 (IL-2 2.5 ng/mL) [20]	23.4
NK-YS (IL-2 2.5 ng/mL) [21]	25.9
NKL (IL-2 2.5 ng/mL) [22]	32.2
SNK-6 (IL-2 2.5 ng/mL) [23]	28.8
YT (IL-2 2.5 ng/mL) [24]	31.9
[15]	16.8
[25]	0
[26]	0
[27]	0.25
[28]	1.58

CN1CCN(c2ccc3nc(-c4c(N)c5c(F)cccc5[nH]c4=O)[nH]c3c2)CC1 [Dovitinib] (max concentration tested 10000 nM)
percent inhibition of viability [%]
Settings	1 nM	10 nM	100 nM	1000 nM	10000 nM
DERL-7 (IL-2 2.5 ng/mL) [2]	-0.26	-2.47	-0.75	1.93	19.1
IMC-1 (IL-2 20 ng/mL) [3]	-9.28	-4.03	-5.76	-6.55	-7.61
KAI3 (IL-2 2.5 ng/mL) [4]	2.03	-0.28	0.82	4.98	25.2
KHYG-1 (IL-2 2.5 ng/mL) [5]	-5.15	-3.54	0.13	3.06	2.7
NK-92 (IL-2 2.5 ng/mL) [6]	-5.95	-5.28	-3.15	-3.74	0.3
NK-YS (IL-2 2.5 ng/mL) [7]	-1.41	-0.72	1.54	8.71	13.5
NKL (IL-2 2.5 ng/mL) [8]	-10	-6.08	-3.28	8.58	51.6
SNK-6 (IL-2 2.5 ng/mL) [9]	-4.17	-5.09	-18.2	-14	-35.3
YT (IL-2 2.5 ng/mL) [10]	1.17	0.22	2.9	5.68	1.67
[1]	-2.16	-2.71	2.91	-0.42	3.96
[11]	-15.6	-11.3	-2.48	-5.56	9.92
[12]	-23.8	-2.86	19.4	10.6	53.9
[13]	-7.55	-5.64	-7.93	-6.84	19.6
[14]	-13.4	-9.6	-2.56	-3.69	18.9

Settings	drug sensitivity score
DERL-7 (IL-2 2.5 ng/mL) [16]	0.77
IMC-1 (IL-2 20 ng/mL) [17]	0
KAI3 (IL-2 2.5 ng/mL) [18]	1.71
KHYG-1 (IL-2 2.5 ng/mL) [19]	0
NK-92 (IL-2 2.5 ng/mL) [20]	0
NK-YS (IL-2 2.5 ng/mL) [21]	0.43
NKL (IL-2 2.5 ng/mL) [22]	4.18
SNK-6 (IL-2 2.5 ng/mL) [23]	0
YT (IL-2 2.5 ng/mL) [24]	0
[15]	0
[25]	0
[26]	4.36
[27]	0.35
[28]	0.36
